Test results as given in US6730672B2, “Aminoheterocyclic derivatives as antithrombotic or anticoagulant agents” (Zeneca Limited, priority 1994, dated 2004).

Legend:
human Factor Xa = human Factor Xa (Homo sapiens, UniProt P00742); test: Measurement of Factor Xa Inhibition (chromogenic substrate S-2765); format: biochemical; details: test a), pH7.5, 37° C., read-out: IC50 against Factor Xa
Method: a) Measurement of Factor Xa Inhibition
An in vitro assay system was carried out based on the method of Kettner et al., J. Biol. Chem., 1990, 265, 18289-18297, whereby various concentrations of a test compound were dissolved in a pH7.5 buffer containing 0.5% of polyethylene glycol and incubated at 37° C. with human Factor Xa (0.001 Units/ml, 0.3 ml) for 15 minutes. The chromogenic substrate S-2765 (KabiVitum AB, 20 μM) was added and the mixture was incubated at 37° C. for 20 minutes whilst the absorbance at 405 nm was measured. The maximum reaction velocity (Vmax) was determined and compared with that of a control sample containing no test compound. Inhibitor potency was expressed as an IC50 value.

human thrombin = human thrombin (Homo sapiens, UniProt P00734); test: Measurement of Thrombin Inhibition (chromogenic substrate S-2238); format: biochemical; details: test b), read-out: IC50 against thrombin
Excerpt: b) Measurement of Thrombin Inhibition
The procedure of method a) was repeated except that human thrombin (0.005 Units/ml) and the chromogenic substrate S-2238 (KabiVitum AB) were employed.

human blood plasma [1] = test: Measurement of Anticoagulant Activity in vitro, prothrombin time (PT) test; format: biochemical; details: test c)
Method: (§1) c) Measurement of Anticoagulant Activity
(§2) An in vitro assay whereby human venous blood was collected and added directly to a sodium citrate solution (3.2 g/100 ml, 9 parts blood to 1 part citrate solution). Blood plasma was prepared by contrifugation (1000 g, 15 minutes) and stored at 2-4° C. Conventional activated partial thromboplastin time (APTT) and prothrombin time (PT) tests were carried out in the presence of various concentrations of a test compound and the concentration of test compound required to double the clotting time, hereinafter referred to as CT2, was determined. In the APTT test, the test compound, blood plasma and APTT reagent were incubated at 37° C. for 3 minutes. Calcium chloride (0.02M) was added and fibrin formation and the time required for a clot to form were determined. In the PT test, an analogous procedure was followed except that tissue thromboplastin was used in place of APTT reagent.

[2] = test system: Alderley Park Wistar rats; test: Ex vivo Assay of Anticoagulant Activity (APTT and PT coagulation assays after dosing); format: in vivo; details: test d), rat
Method: d) An ex vivo Assay of Anticoagulant Activity
The test compound was administered intravenously or orally to a group of Alderley Park Wistar rats. At various times thereafter animals were anaesthetised, blood was collected and APTT and PT coagulation assays analogous to those described hereinbefore were conducted.

[3] = test system: Alderley Park Wistar rats; test: In vivo Measurement of Antithrombotic Activity (thromboplastin/stasis-induced vena cava thrombus); details: test e), rat, 5 mg/kg dose
Method: e) An in vivo Measurement of Antithrombotic Activity
Thrombus formation was induced using an analogous method to that described by Vogel et al., Thromb. Research, 1989, 54, 399-410. A group of Alderley Park Wistar rats was anaesthetised and surgery was performed to expose the vena cava. […] Test compound was administered intravenously or orally. At an appropriate time thereafter tissue thromboplastin (1 ml/kg) was administered into the jugular vein and, after 10 seconds, the two sutures were tightened to induce stasis within the ligated portion of vena cava. After 10 minutes the ligated tissue was excised and the thrombus therein was isolated, blotted and weighed.

human blood plasma [4] = test: Measurement of Anticoagulant Activity in vitro, activated partial thromboplastin time (APTT) test; format: biochemical; details: test c)
Method: as §1, §2

Sequence of human Factor Xa (P00742 235-488 limits assumed): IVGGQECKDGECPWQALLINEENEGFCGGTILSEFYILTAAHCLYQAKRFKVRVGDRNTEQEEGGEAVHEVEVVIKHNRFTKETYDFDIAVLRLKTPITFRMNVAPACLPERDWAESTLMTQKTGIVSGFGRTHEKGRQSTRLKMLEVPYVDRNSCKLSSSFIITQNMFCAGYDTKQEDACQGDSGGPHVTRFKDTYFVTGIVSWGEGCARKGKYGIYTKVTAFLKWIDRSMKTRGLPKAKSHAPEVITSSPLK
Sequence of human Factor Xa (P00742 41-179 partner limits assumed): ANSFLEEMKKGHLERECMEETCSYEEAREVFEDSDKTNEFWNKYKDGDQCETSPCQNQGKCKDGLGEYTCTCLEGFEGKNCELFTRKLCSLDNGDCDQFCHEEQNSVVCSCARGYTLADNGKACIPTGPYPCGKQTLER

Row | IC50 (human Factor Xa) | IC50 (human thrombin) | melting point | Structure (SMILES) | CT2 (PT), concentration required to double the clotting time (human blood plasma [1]) | clotting time following intravenous administration ([2]; 5 mg/kg dose) | thrombus weight following intravenous administration [3] | CT2 (APTT), concentration required to double the clotting time (human blood plasma [4]) | clotting time following intravenous administration ([2]; 10 mg/kg dose)
1 | 8 nM | > 10000 nM | 215 to 220 °C (dec.) | O=C(O)C1CN(S(=O)(=O)c2ccc3cc(Cl)ccc3c2)CCN1C(=O)C1CCN(c2ccncc2)CC1 (stereo not drawn) [Example 63, 2-carboxy-4-(6-chloronaphth-2-ylsulphonyl)-1-[1-(4-pyridyl)piperidin-4-ylcarbonyl]-piperazine] | 4.6 µM | increased clotting time | reduced thrombus weight |  | 
2 | 3 nM | 34000 nM |  | O=C(C1CCN(c2ccncc2)CC1)N1CCN(S(=O)(=O)c2ccc3cc(Cl)ccc3c2)CC1 [Example 40, Compound No. 5, 1-(6-chloronaphth-2-ylsulphonyl)-4-[1-(4-pyridyl)piperidin-4-ylcarbonyl]piperazine] | 0.5 µM | increased clotting time |  | 1.2 µM | 

Second part, the compound before the results:

Row | Structure (SMILES) | IC50 (human Factor Xa) | IC50 (human thrombin) | melting point | CT2 (PT), concentration required to double the clotting time (human blood plasma [1]) | clotting time following intravenous administration ([2]; 5 mg/kg dose) | thrombus weight following intravenous administration [3] | CT2 (APTT), concentration required to double the clotting time (human blood plasma [4]) | clotting time following intravenous administration ([2]; 10 mg/kg dose)
3 | O=C(CNS(=O)(=O)c1ccc2ccccc2c1)NC(CNC(=O)C1CCN(c2ccncc2)CC1)C(=O)N1CCCCC1 (stereo not drawn) [Example 1, 2-(2-naphthalenesulphonamido)-N-{1-piperidinocarbonyl-2-[1-(4-pyridyl)-piperidin-4-ylcarbonylamino]ethyl}acetamide] | 300 nM | > 100000 nM |  | 14 µM |  | reduced thrombus weight | 62 µM | increased clotting time
4 | O=C(C1CCN(c2ccncc2)CC1)N1CCN(S(=O)(=O)/C=C/c2ccc(Cl)cc2)CC1 [Example 39, Compound No. 2, 1-[(E)-4-chlorostyrylsulphonyl]-4-[-1-(4-pyridyl)piperidin-4-ylcarbonyl]piperazine] | 12 nM | > 100000 nM |  | 1 µM | increased clotting time | reduced thrombus weight | 1.8 µM | 
5 | CCOC(=O)C1CN(S(=O)(=O)c2ccc3cc(Cl)ccc3c2)CCN1C(=O)C1CCN(c2ccncc2)CC1 (stereo not drawn) [Example 62, 4-(6-chloronaphth-2-ylsulphonyl)-2-ethoxycarbonyl-1-[1-(4-pyridyl)-piperidin-4-ylcarbonyl]piperazine] | 2 nM | > 10000 nM |  | 0.7 µM | increased clotting time |  |  | 
